From BigSolDB 2.1
Values joined by “and” are separate entries in the source; they are usually repeats but may differ in a detail not shown here. Identical values can stand only once.

CC(C)(C)C(O)/C(=C\c1ccc(Cl)cc1)n1cncn1 (stereo not drawn)
solubility (mole fraction)
Conditions	278.15 K	283.15 K	288.15 K	293.15 K	298.15 K	303.15 K	308.15 K	313.15 K	318.15 K	323.15 K
in ethyl acetate	0.0106	0.0112	0.016	0.0167	0.0187	0.0201	0.0253	0.028	0.035	0.0536
in ethylene glycol	0.000907	0.000983	0.00103	0.00118	0.00128	0.00166	0.0018	0.00202	0.00248	0.0025
in isobutanol	0.0157	0.0177	0.0185	0.0197	0.0225	0.0257	0.0261	0.0365	0.0425	0.0566
in isobutyl acetate	0.00727	0.0102	0.0116	0.0136	0.0159	0.0199	0.0219	0.0263	0.0335	0.0423
in isopropanol	0.0112	0.0122	0.0141	0.0157	0.0189	0.0248	0.0268	0.0326	0.038	0.047
in methyl acetate	0.0084	0.00938	0.0116	0.0137	0.0151	0.0184	0.0214	0.0236	0.0318	0.0383
in n-butanol	0.015	0.0171	0.0196	0.0221	0.0249	0.0309	0.0355	0.0406	0.0475	0.0623
in n-butyl acetate	0.0118	0.0131	0.0153	0.0182	0.0204	0.0247	0.0291	0.0332	0.0364	0.0527
in n-octanol	0.0159	0.0177	0.02	0.0225	0.0238	0.0255	0.0287	0.0369	0.044	0.0511
in n-propanol	0.0143	0.0163	0.0196	0.0218	0.0231	0.0263	0.0273	0.0332	0.0441	0.0497
in n-propyl acetate	0.0114	0.0123	0.0147	0.0169	0.0269	0.0277	0.0362	0.037	0.052	0.0556
in propylene glycol	0.00332	0.00359	0.00423	0.00483	0.00737	0.00749	0.00874	0.0101	0.0139	0.0174
in water	2.2e-06 and 3.2e-06	2.3e-06 and 3.6e-06	2.4e-06	2.6e-06	2.7e-06	2.8e-06	3e-06	–	–	4.2e-06
